Source: patent US8071300B2, “Drug-phosphorylating enzyme” (Daiichi Sankyo Company, Limited, priority 2006, dated 2011)
Values belong to the compound of their own block, whether it stands above or below them.

How the values were obtained:
human FN3KRP [1] = test: Compound 1 phosphorylating activity of human erythrocyte fractions in presence and absence of 1 mM DMF (FN3KRP purification, Example 6); format: biochemical
Experimental: (§1) When 1-deoxy-1-morpholinofructose (DMF; Sigma) was added to the reaction solution, it was added thereto to a final concentration of 1 mM. […] Thereafter, 150 μL of methanol was added to the reaction solution, and the mixture was then filtrated through a filter with a pore diameter of 0.45 μm, so as to terminate the reaction and remove the protein. 10 μL of the filtrate was subjected to a reverse phase chromatography column (TSK-gel ODS-100S; 4.6 mm (diameter)×150 mm (length); Tosoh Corp). Isocratic elution was carried out using 40% acetonitrile comprising 0.1% trifluoroacetic acid at a flow rate of 1 mL/min at a column temperature of 40° C. […] The amount of phosphoric ester of compound 1 generated was measured based on a peak area.
(§2) For purification, enzyme activity was always measured in the presence and absence of 1 mM DMF, so that the purification was carried out using activity that is not inhibited by DMF as an indicator.
(§3) The ammonium sulfate precipitate obtained in Example 4 was fractionated by each of an anion exchange column (HiPrep Q 16/10 XL, GE Healthcare Biosciences), a dye-binding affinity column (HiTrap Blue HP 1 mL), a cation exchange column (Mono S PC 1.6/5), and a gel filtration column (Superdex 75 PC 3.2/30).

human FN3KRP [2] = biological target: T1, human FN3KRP (Homo sapiens, UniProt Q9HA64); test: as above; format: biochemical
T1 sequence (Q9HA64 1-309): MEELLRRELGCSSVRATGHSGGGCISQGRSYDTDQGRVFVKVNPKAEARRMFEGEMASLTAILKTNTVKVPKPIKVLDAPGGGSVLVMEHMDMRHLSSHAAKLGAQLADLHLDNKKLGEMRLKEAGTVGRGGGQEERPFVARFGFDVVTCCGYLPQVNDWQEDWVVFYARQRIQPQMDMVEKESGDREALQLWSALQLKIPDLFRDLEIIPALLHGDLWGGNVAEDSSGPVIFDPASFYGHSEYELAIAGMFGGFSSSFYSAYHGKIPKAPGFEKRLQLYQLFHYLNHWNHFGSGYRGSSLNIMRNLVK
Experimental: as §1, §2, §3

human FN3K [3] = biological target: T2, human FN3K (Homo sapiens, UniProt Q9H479); test: DMF inhibition of compound 1 phosphorylating activity, hydrophobic interaction column active fraction (Example 6); format: biochemical; settings: active fraction of the hydrophobic interaction column (second purification stage, Example 4)
T2 construct: expressed in transfected cells; host or cells: HEK293, transient, hFN3K/pcDNA3.2-DEST; cytoplasmic fraction (lysate supernatant) used
T2 sequence (Q9H479 1-309): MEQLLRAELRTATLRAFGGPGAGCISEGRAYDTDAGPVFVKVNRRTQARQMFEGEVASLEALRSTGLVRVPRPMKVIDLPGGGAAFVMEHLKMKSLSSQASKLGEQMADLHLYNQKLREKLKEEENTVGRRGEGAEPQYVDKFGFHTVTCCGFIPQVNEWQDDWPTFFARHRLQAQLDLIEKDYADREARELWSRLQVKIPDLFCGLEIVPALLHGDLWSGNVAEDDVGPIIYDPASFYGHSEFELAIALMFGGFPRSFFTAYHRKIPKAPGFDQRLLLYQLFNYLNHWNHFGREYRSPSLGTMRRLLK
Experimental: as §1

human FN3KRP [4] = biological target: T1, human FN3KRP; test: Phosphorylation of compound 1 and analogs using human FN3KRP expression cytoplasmic fraction (Example 13); format: biochemical; parameters: expressed in transfected cells; host or cells: HEK293, transient, hFN3KRP/pcDNA3.1(+)neo; cytoplasmic fraction (lysate supernatant) used; settings: 100 μM substrate, 0.328 mg/mL human FN3KRP expression cytoplasmic fraction, 5 mM ATP, 37° C., 3 hours
Experimental: (§4) HEK293 cells were inoculated to three 75-cm^2 culture flasks, and they were then cultured until they became 80% confluent. Using a lipofectamine plus reagent (Invitrogen), gene introduction was carried out without plasmid DNA, with 4 μg of hFN3KRP/pcDNA3.1(+)neo, and with 4 μg of hFN3K/pcDNA3.2-DEST, for each of the three flasks. Thereafter, the cells were cultured for approximately 27 hours. Thereafter, the cells were washed with PBS, and 2.5 mL of a cell lysate (100 mM HEPES (pH 7.4), 80% (v/v) CelLytic-M (Sigma), 1 mM dithiothreitol, a single protease inhibitor cocktail for 50 mL (Complete EDTA-free, Roche)) was then added to the cells. Thereafter, the cells were intensively shaken, until all of them were removed. The thus removed cells and the supernatant were recovered, and they were then ultracentrifuged at 20,000×g at 4° C. for 15 minutes. Thereafter, the supernatant was recovered, and aliquots each of 200 μL were frozen in liquid nitrogen. They were preserved at −80° C. until used. In addition, a portion of the supernatant was subjected to measurement of protein concentration. […]
(§5) The efficiency of phosphorylating each compound was calculated using the peak areas of phosphoric ester and unreacted substrate, as shown in the following formula. […]

human FN3K [5] = biological target: T2, human FN3K; test: Phosphorylation of compound 1 and analogs using human FN3K expression cytoplasmic fraction (Example 14); format: biochemical; settings: 100 μM substrate, 0.3 mg/mL human FN3K expression cytoplasmic fraction, 5 mM ATP, 37° C., 3 hours
Experimental: as §4, with “used.” for “used. In addition, a portion of the supernatant was subjected to measurement of protein concentration.”
as §5
After completion of the reaction, 200 μL of methanol was added to the reaction solution, and the mixture was then stirred. […] The efficiency of phosphorylating each analog was calculated using the formula as shown in Example 13.

rat erythrocytes = test: Phosphorylation of compound 1 and analogs using rat erythrocytes (Example 15); format: cell-based, Wistar-Imamichi rats; settings: 100 μg/mL substrate, 37° C., 3 hours
Experimental: The efficiency of phosphorylating each compound was calculated using the peak areas of phosphoric ester and unreacted substrate, as shown in the following formula. Phosphorylation efficiency (%)=peak area of phosphoric ester/(peak area of phosphoric ester+peak area of unreacted substrate)×100
Erythrocytes were prepared from Wistar-Imamichi rats (purchased from Institute for Animal Reproduction) in the same manner as in Example 1.
Reaction solution: Rat erythrocytes
Reaction substrate: 100 μg/mL
Reaction condition: 37° C., 3 hours
After completion of the reaction, 1 mL of methanol was added to the reaction solution, and the mixture was then stirred. The mixed solution was centrifuged (16,000×g, 5 minutes, 4° C.). The supernatant was centrifuged again (16,000×g, 10 minutes, 4° C.), and 20 μL of a newly obtained supernatant was then subjected to HPLC, so that analysis was carried out under the conditions described in Example 13. The efficiency of phosphorylating each analog was calculated using the formula as shown in Example 13.

human FN3K [6] = biological target: T2, human FN3K; test: Ability of human FN3K cytoplasmic fraction to phosphorylate FTY720 and sphingosine (Example 12); format: biochemical; settings: 10 μM substrate, 5 mM ATP, approximately 91 μg cytoplasmic fraction, 37° C., 3 hours
Experimental: (§6) Eighteen 1.5-mL polypropylene tubes were prepared. Components were added to each tube to the following final concentrations, with the total amount set at 250 μL, followed by leaving the obtained solution at rest on ice (100 mM HEPES (pH 7.4), 5 mM magnesium chloride, 5 mM ATP, 1 mM dithiothreitol, 0.5% CHAPS, 10 μM FTY720 or sphingosine, each cytoplasmic fraction obtained in Example 10 in an amount of approximately 91 μg). The obtained mixture was incubated in a hot-water bath at 37° C. for 3 hours, and was then transferred onto ice. 0.5 mL methanol was added to each tube, and mixed with the reaction product. Thereafter, the mixture was preserved at −20° C. until LC/MS/MS measurement was carried out.
(§7) The amount of FTY720 phosphoric ester or SIP generated was analyzed using the following LC/MS/MS system.
(§8) LC system: • HPLC apparatus name: Agilent 1100 series (Agilent Technologies) • Autosampler name: HTC PAL (CTC Analytics)
(§9) MS/MS system: • Apparatus name: API4000 (Applied Biosystems/MDS Sciex)

human FN3KRP [7] = biological target: T1, human FN3KRP; test: Ability of human FN3KRP cytoplasmic fraction to phosphorylate FTY720 and sphingosine (Example 12); format: biochemical; parameters: expressed in transfected cells; host or cells: HEK293, transient, hFN3KRP/pcDNA3.1(+)neo; cytoplasmic fraction (lysate supernatant) used; settings: 10 μM substrate, 5 mM ATP, approximately 91 μg cytoplasmic fraction, 37° C., 3 hours
Experimental: as §6, §7, §8, §9

SMILES: O=C(CN1CCOCC1)[C@@H](O)[C@H](O)[C@H](O)CO [DMF, 1-deoxy-1-morpholinofructose]
Remaining activity (human FN3KRP [1]; 1 mM DMF; 1) ammonium sulfate precipitation): 89%
Remaining activity (human FN3KRP [1]; 1 mM DMF, soluble fraction): 81%
Inhibition of compound 1 phosphorylating activity by DMF (human FN3KRP [1]; soluble fraction and re-solubilized ammonium sulfate precipitate): hardly observed
remaining activity at 1000 µM (human FN3KRP [2]; 1 mM DMF; 2) anion exchange column): 98%
remaining activity at 1000 µM (human FN3KRP [2]; 1 mM DMF; 3) dye-binding affinity column): 110%
remaining activity at 1000 µM (human FN3KRP [2]; 1 mM DMF; 4) cation exchange column): 98%
Inhibition of enzyme activity by DMF (human FN3KRP [2]; enzyme activity after the second purification step): not inhibited
IC50 (human FN3K [3]): ~1000 nM

Phosphorylation efficiency (human FN3KRP [4]): 37.5%
Phosphorylation efficiency (human FN3K [5]): 0.0%
SMILES: NC(CO)(CO)CCCc1ccc(Sc2cccc(OCc3ccccc3)c2)cc1Cl [ROX-2127, 2-amino-2-[4-(3-benzyloxyphenylthio)-2-chlorophenyl]propyl-1,3-propanediol]
Phosphorylation efficiency (rat erythrocytes): 31.7%

Phosphorylation of substrate (LC/MS/MS) (human FN3K [6]): slightly phosphorylate
Phosphorylation of substrate (LC/MS/MS) (human FN3KRP [7]): slightly phosphorylate
SMILES: CCCCCCCCc1ccc(CCC(N)(CO)CO)cc1.Cl [FTY720, 2-Amino-2-[2-(4-octylphenyl)ethyl]propane-1,3-diol hydrochloride]

Phosphorylation of substrate (LC/MS/MS) (human FN3K [6]): do not have ability to phosphorylate
Phosphorylation of substrate (LC/MS/MS) (human FN3KRP [7]): do not have ability to phosphorylate
SMILES: CCCCCCCCCCCCC/C=C/[C@@H](O)[C@@H](N)CO [sphingosine]
